ChEMBL document CHEMBL5303573, “Mapping human microbiome drug metabolism by gut bacteria and their genes” (Nature, 2019)

Columns and labels:
Format in all cases: ADME
Parameters in all cases: dose 2 uM
Details in all cases: 2 µM
Acyltransferase = biological target: T1, Acyltransferase (Bacteroides thetaiotaomicron, UniProt Q8A575); experiment: (§1) The drug is tested on Bacteroides thetaiotaomicron strain: VPI-5482 for biotransformation. The drug concentrations were measured before and after a 12-h incubation by liquid-chromatography-coupled mass spectrometry (LC–MS)
T1 sequence (Q8A575 whole entry): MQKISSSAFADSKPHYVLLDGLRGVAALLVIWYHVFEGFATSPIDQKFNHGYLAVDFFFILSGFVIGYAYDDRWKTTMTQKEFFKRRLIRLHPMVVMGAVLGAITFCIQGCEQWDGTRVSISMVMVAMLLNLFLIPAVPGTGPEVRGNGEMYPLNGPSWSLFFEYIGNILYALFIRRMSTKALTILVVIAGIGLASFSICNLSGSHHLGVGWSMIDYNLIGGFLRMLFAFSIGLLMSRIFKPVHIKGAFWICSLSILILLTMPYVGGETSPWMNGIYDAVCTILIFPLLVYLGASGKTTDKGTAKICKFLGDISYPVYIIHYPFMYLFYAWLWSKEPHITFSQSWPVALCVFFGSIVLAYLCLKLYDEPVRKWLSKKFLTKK

[1] = biological target: T2, Lipolytic enzyme, G-D-S-L family (Bacteroides thetaiotaomicron, UniProt Q8A0E6); experiment: as §1
T2 sequence (Q8A0E6 whole entry): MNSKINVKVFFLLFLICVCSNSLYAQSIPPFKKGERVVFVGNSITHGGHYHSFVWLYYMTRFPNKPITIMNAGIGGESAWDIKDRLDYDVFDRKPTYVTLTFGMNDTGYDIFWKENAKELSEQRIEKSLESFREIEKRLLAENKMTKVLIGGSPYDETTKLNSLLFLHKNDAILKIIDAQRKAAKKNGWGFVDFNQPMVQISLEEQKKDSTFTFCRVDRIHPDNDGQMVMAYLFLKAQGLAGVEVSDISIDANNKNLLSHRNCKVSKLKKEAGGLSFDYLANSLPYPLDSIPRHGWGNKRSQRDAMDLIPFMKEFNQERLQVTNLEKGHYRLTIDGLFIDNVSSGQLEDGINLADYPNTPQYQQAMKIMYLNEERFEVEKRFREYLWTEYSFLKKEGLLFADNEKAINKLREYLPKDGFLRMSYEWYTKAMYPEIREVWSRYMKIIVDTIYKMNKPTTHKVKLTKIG

[2] = biological target: T3, Lipolytic enzyme, G-D-S-L family (Bacteroides thetaiotaomicron, UniProt Q8A0C5); experiment: as §1
T3 sequence (Q8A0C5 whole entry): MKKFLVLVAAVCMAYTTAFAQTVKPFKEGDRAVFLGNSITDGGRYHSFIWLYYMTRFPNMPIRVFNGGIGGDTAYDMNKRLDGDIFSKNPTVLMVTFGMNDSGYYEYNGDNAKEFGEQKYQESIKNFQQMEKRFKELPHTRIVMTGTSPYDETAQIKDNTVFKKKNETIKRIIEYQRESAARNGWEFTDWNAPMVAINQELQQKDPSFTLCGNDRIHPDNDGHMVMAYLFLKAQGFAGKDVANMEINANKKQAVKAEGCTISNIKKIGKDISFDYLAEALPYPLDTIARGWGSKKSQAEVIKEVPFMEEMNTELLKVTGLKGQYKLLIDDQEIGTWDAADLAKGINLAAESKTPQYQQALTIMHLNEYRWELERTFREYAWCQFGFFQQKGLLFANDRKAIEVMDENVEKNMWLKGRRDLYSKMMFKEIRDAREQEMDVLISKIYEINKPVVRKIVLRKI

[3] = biological target: T4, Sialic acid-specific 9-O-acetylesterase (Bacteroides thetaiotaomicron, UniProt Q8A0D0); experiment: as §1
T4 sequence (Q8A0D0 whole entry): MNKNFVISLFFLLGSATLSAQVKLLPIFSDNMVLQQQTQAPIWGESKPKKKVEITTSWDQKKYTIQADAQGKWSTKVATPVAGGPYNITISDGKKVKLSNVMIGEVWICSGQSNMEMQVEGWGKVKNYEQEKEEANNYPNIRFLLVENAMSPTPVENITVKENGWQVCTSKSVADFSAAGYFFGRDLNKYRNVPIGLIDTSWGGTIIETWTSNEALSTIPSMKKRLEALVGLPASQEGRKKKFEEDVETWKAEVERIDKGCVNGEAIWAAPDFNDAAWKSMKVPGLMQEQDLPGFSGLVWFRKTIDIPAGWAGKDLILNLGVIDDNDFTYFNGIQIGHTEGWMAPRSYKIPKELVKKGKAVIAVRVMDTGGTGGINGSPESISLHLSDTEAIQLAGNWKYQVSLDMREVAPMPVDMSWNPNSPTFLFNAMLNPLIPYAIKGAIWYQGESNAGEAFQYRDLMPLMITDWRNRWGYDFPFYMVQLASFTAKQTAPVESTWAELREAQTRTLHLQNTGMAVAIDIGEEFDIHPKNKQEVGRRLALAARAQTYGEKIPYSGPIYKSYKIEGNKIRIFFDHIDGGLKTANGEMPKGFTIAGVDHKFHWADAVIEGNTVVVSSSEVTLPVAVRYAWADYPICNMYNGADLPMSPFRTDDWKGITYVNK

Nitroreductase = biological target: T5, Nitroreductase (Bacteroides thetaiotaomicron, UniProt Q8A911); experiment: as §1
T5 sequence (Q8A911 whole entry): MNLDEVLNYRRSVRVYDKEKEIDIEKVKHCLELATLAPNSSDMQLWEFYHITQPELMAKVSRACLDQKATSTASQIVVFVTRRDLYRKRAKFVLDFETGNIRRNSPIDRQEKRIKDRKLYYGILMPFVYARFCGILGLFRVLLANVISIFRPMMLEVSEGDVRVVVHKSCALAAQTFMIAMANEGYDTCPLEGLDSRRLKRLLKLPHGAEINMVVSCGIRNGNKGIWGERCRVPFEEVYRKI

[4] = biological target: T6, Nitroreductase-like protein (Bacteroides thetaiotaomicron, UniProt Q8AB93); experiment: as §1
T6 sequence (Q8AB93 whole entry): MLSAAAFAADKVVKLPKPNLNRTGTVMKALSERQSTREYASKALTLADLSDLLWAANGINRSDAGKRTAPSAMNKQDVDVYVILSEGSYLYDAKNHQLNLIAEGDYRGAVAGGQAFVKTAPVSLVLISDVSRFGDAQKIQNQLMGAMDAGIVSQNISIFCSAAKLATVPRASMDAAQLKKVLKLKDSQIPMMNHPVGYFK

Xylanase = biological target: T7, Xylanase (Bacteroides thetaiotaomicron, UniProt Q8A8H5); experiment: as §1
T7 sequence (Q8A8H5 whole entry): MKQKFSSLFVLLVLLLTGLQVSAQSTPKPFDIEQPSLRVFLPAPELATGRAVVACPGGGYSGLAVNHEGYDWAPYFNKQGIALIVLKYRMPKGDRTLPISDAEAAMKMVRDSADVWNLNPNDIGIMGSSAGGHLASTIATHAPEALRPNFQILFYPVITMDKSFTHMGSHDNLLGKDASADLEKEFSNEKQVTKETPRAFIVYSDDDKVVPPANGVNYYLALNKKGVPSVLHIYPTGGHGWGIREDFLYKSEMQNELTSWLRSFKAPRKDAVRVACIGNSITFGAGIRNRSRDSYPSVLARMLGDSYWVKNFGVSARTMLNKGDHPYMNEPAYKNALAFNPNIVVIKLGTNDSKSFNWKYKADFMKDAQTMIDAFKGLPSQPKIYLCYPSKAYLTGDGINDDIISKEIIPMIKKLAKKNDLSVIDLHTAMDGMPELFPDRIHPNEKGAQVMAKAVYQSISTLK

Measured: Bacterial Biotransformation

C[C@]12CCC(=O)C=C1[C@@H]1C[C@@H]1[C@H]1[C@@H]3[C@@H]4C[C@@H]4[C@@]4(CCC(=O)O4)[C@@]3(C)CC[C@@H]12 [DROSPIRENONE]
Compound NOT metabolized: all assays above
